# Laboratory results taken from PubChem BioAssay (NCI).
# Values joined by “and” are separate entries in the source; they are usually repeats but may differ in a detail not shown here. Identical values can stand only once.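 Protocol summary: plate cells (96-well), add compound at 5 concentrations, incubate 48 h, interpolate endpoints linearly. GI50 is the concentration that inhibits growth by half. TGI: total growth inhibition.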
# Columns and labels:
# Test in all cases: inhibition of tumour cell growth, NCI panel, 48 h
# HCC-2998 colon = test system: HCC-2998 colon
# HT29 colon = test system: HT29 colon
# HL-60(TB) leukemia = test system: HL-60(TB) leukemia
# HOP-92 NSCLC = test system: HOP-92 NSCLC
# UACC-62 melanoma = test system: UACC-62 melanoma
# CAKI-1 renal = test system: CAKI-1 renal
# A498 renal = test system: A498 renal
# HCT-15 colon = test system: HCT-15 colon
# U251 CNS = test system: U251 CNS
# SR leukemia = test system: SR leukemia
Compound,GI50 (HCC-2998 colon),GI50 (HT29 colon),GI50 (HL-60(TB) leukemia),TGI (HOP-92 NSCLC),GI50 (UACC-62 melanoma),TGI (UACC-62 melanoma),GI50 (CAKI-1 renal),TGI (A498 renal),GI50 (HCT-15 colon),TGI (HCT-15 colon),GI50 (U251 CNS),GI50 (SR leukemia),TGI (HCC-2998 colon),TGI (HT29 colon),TGI (HL-60(TB) leukemia),GI50 (HOP-92 NSCLC) [µM],TGI (CAKI-1 renal),GI50 (A498 renal),TGI (U251 CNS),TGI (SR leukemia)
CC(C)c1cccc(O)c(=O)c1,1.63 µg/mL,1.34 µg/mL,1.25 µg/mL,> 100 µM,4.17 µg/mL,28.6 µg/mL and > 41.3 µM,2.97 µg/mL,> 100 µM,0.997 µg/mL,> 75 µg/mL and > 100 µM,1.23 µg/mL,0.496 µg/mL,–,–,–,–,–,–,–,–
O=C(c1ccco1)c1c(C(F)(F)F)n([O-])c2cc(C(F)(F)F)ccc2[n+]1=O,0.371 µM,1.25 µM,0.185 µM,1.51 µM,1.44 µM,2.89 µM,1.51 µM,3.28 µM,0.404 µM,0.842 µM,0.46 µM,0.0394 µM,0.862 µM,2.84 µM,0.484 µM,0.252,2.97 µM,1.53 µM,0.951 µM,0.265 µM
COC(=O)Nc1nc2ccc(C(=O)c3ccccc3)cc2[nH]1,2.31 µM and 2.13 µM,0.363 µM and 0.26 µM,0.255 µM and 0.233 µM,> 85.9 µM,0.476 µM and 0.463 µM,> 100 µM,0.469 µM and 0.347 µM,8.9 µM and 3.26 µM,0.451 µM and 0.21 µM,> 100 µM,0.5 µM and 0.398 µM,0.168 µM and 0.0444 µM,> 100 µM,8.21 µM and 11.2 µM,0.636 µM,–,> 100 µM,0.314 µM and 0.325 µM,> 100 µM,28.1 µM and > 100 µM
C=C1C(=O)O[C@H]2[C@H]1CC/C(Cn1cc(-c3ccc(F)cc3)nn1)=C\CC[C@@]1(C)O[C@@H]21,1.74 µM,0.695 µM,0.728 µM,1.12 µM,1.26 µM,2.65 µM,1.03 µM,3.91 µM,0.282 µM,1.19 µM,2.02 µM,0.251 µM,3.3 µM,2.15 µM,2.76 µM,0.349,2.23 µM,1.82 µM,4.43 µM,1.18 µM
Cc1c(N)nc(C(CC(N)=O)NCC(N)C(N)=O)nc1C(=O)NC(C(=O)NC(C)C(O)C(C)C(=O)NC(C(=O)NCCc1nc(-c2nc(C(=O)NCCCNC(C)c3ccccc3)cs2)cs1)C(C)O)C(OC1OC(CO)C(O)C(O)C1OC1OC(CO)C(O)C(OC(N)=O)C1O)c1cnc[nH]1 (stereo not drawn),–,–,32 µM,3.51 µM and 25.8 µM,–,8.82 µM,2 µM,27.5 µM,26.8 µM,50 µM and > 100 µM,2.32 µM,50.3 µM,50 µM and > 100 µM,50 µM and > 100 µM,50 µM and > 100 µM,0.227,–,–,24 µM and 56.6 µM,50 µM and > 100 µM
CCn1c2c(c3ccccc31)[C@@H](c1ccc(Cl)cc1)CC1C(=O)N(c3ccccc3)C(=O)C21 (stereo partly drawn),–,–,–,90.5 µM,–,> 100 µM,–,> 100 µM,–,> 100 µM,–,–,> 100 µM,> 100 µM,> 100 µM,–,> 100 µM,–,> 100 µM,98.8 µM
CO[C@H]1C[C@](C)(O)Cc2cc3c(c(O)c21)C(=O)c1c(O)cc2c(c1C3=O)O[C@@H]1O[C@@]2(C)[C@H](O)[C@@H](N(C)C)[C@@H]1O,1.48 µM,1.56 µM,0.159 µM,7.76 µM and 2.96 µM,–,2.98 µM and 2.83 µM,0.114 µM,7.95 µM and 5.14 µM,–,3.4 µM and 10.9 µM,0.461 µM,–,3.04 µM and 11.9 µM,5.79 µM and 15.6 µM,0.797 µM and 1.64 µM,1.81,2.1 µM and 1.59 µM,1.66 µM,1.58 µM and 2.48 µM,0.647 µM
Nc1ccc(COC(O)CN2CCCCC2)cc1[N+](=O)[O-] (stereo not drawn),–,–,–,> 100 µM,–,> 100 µM,–,> 100 µM,–,> 100 µM,–,–,> 100 µM,> 100 µM,> 100 µM,–,> 100 µM,–,> 100 µM,> 100 µM
Cc1ccc(S(=O)(=O)c2ccc(C)cc2[N+](=O)[O-])cc1,–,–,–,> 100 µM,–,> 100 µM,–,> 100 µM,–,> 100 µM,–,–,> 100 µM,> 100 µM,> 100 µM,–,> 100 µM,–,> 100 µM,> 100 µM
C=C1SC(=Nc2ccccc2Cl)N(C(=O)c2sc3ccccc3c2Cl)C12CCCCC2,7.27 µM,6.71 µM,6.63 µM,9.31 µM,22.8 µM,> 100 µM,3.05 µM,74.6 µM,5.45 µM,> 100 µM,4.42 µM,8.54 µM,> 100 µM,> 100 µM,89.3 µM,2.01,> 100 µM,2.77 µM,> 100 µM,> 100 µM
Cc1[nH]c(N)nc(=S)c1CCC(=O)O,–,–,–,> 100 µM,–,> 100 µM,–,> 100 µM,–,> 100 µM,–,–,> 100 µM,> 100 µM,> 100 µM,–,> 100 µM,–,> 100 µM,> 100 µM
CCOC(=O)C12C(C(=O)OC)=C(C)N(NC(=O)Nc3ccccc3)C1(N)N(NC(=O)Nc1ccccc1)C(C)=C2C(=O)OC (stereo not drawn),–,–,–,66.3 µM,–,34.5 µM,–,> 100 µM,–,> 100 µM,–,–,86.8 µM,52.9 µM,48.8 µM,–,> 100 µM,–,35.8 µM,59.1 µM
C[n+]1c2ccccc2nc2ccccc21,2.11 µM,1.76 µM,1.74 µM,4.71 µM,1.41 µM,2.99 µM,2.09 µM,3.46 µM,2.07 µM,10.8 µM,1.44 µM,6.14 µM,7.22 µM,12 µM,> 16.1 µM,1.5,6.42 µM,1.75 µM,3.09 µM,> 28.2 µM
CCCCCCCCCCCCCCCCOP(=O)([O-])OCC[N+](C)(C)C,1.06 µM,0.39 µM,0.897 µM,3.12 µM and 15.3 µM,1.34 µM,–,0.931 µM,5.24 µM and 37.4 µM,0.842 µM,–,1.05 µM,0.546 µM,–,–,3.84 µM and 16.3 µM,1.14,2.99 µM and 27.7 µM,1.13 µM,–,3.46 µM and 28.5 µM
Nc1nc2cc(CC[C@H]3C[C@@H](n4ccc5c(N)ncnc54)[C@H](O)[C@@H]3O)ccc2cc1Br,11.2 µM,2.46 µM,14.1 µM,39.9 µM,8.95 µM,21.7 µM,4.38 µM,18.9 µM,11.3 µM,25.6 µM,13 µM,18.7 µM,24.4 µM,24.3 µM,38.5 µM,6.66,21.9 µM,2.38 µM,29.8 µM,> 100 µM
CCCCCCCC(=O)SCC/C=C/[C@@H]1CC(=O)NCc2nc(cs2)C2=N[C@@](C)(CS2)C(=O)N[C@@H](C(C)C)C(=O)N1,0.0224 µM,< 0.01 µM,0.013 µM,0.229 µM,< 0.01 µM,0.165 µM,2.75 µM,0.333 µM,3.42 µM,97 µM,0.0318 µM,< 0.0112 µM,0.408 µM,0.0499 µM,> 100 µM,< 0.0119,17.6 µM,0.0244 µM,0.364 µM,> 100 µM
CCCCCCCC/C=C1\CCC(CN2CCOCC2)C1=O (stereo not drawn),–,–,–,33 µM,–,12.6 µM,–,29.9 µM,–,9.52 µM,–,–,26.2 µM,20.5 µM,14.8 µM,–,23.8 µM,–,28 µM,5.3 µM
O=C(/C=C1\C(=O)N(Cc2ccccc2)c2ccccc21)c1ccc(OCCN2CCCCC2)cc1,1.86 µM,1.82 µM,1.71 µM,2.77 µM,1.83 µM,3.62 µM,1.78 µM,28.8 µM,1.71 µM,3.31 µM,1.91 µM,1.77 µM,3.47 µM,3.36 µM,4.39 µM,1.36,4.02 µM,14.2 µM,3.35 µM,9.55 µM
COC1CCC(OC)C(C2(C3CC(OC)CCC3OC)OC(=O)c3ccccc32)C1 (stereo not drawn),–,–,–,> 100 µM,–,> 100 µM,–,> 100 µM,–,> 100 µM,–,–,> 100 µM,> 100 µM,45.1 µM,–,> 100 µM,–,> 100 µM,> 100 µM
Cc1cccc(C)c1N1C(=O)C(=O)C(c2nc3ccccc3s2)/C(=N/NC(=O)c2ccccc2O)C1=O (stereo not drawn),–,–,–,> 67.5 µM,–,8.31 µM,–,> 100 µM,–,> 100 µM,–,–,> 73.1 µM,> 100 µM,43.1 µM,–,> 29.8 µM,–,> 100 µM,86.3 µM
COC(=O)C(CC(=O)Nc1ccc(Cl)c(Cl)c1)C(=O)C(=O)Nc1ccc(Cl)c(Cl)c1 (stereo not drawn),–,–,–,> 100 µM,–,> 100 µM,–,> 100 µM,–,> 100 µM,–,–,> 100 µM,> 100 µM,> 100 µM,–,> 100 µM,–,> 100 µM,> 100 µM
